“Also recorded” adds a separate entry of the source. Where two headings read alike, the source gives them in different places.
How the values were obtained:
[1] = tested on: BXPC-3 human pancreatic carcinoma xenograft; assay type: in vivo, BALB/c nude mice; settings: BXPC-3 xenograft
Method: BXPC-3 tumor cells cultured in RMPI1640 medium supplemented with 10% heat inactivated fetal bovine serum, all cells used EDTA containing trypsin, passaged twice a week, incubated at 37° C. in an atmosphere of 5% CO2 in air and cultured.
40 BALB/c nude mice, female, 6-8 weeks old, 18-22 g in body weight, were purchased from Shanghai Laboratory Animal Center (SLAC, Shanghai, China).
Each mouse was inoculated subcutaneously at the right flank region with BXPC-3 tumor cells (5×10^7) in 0.1 ml of phosphate-buffered saline with matrigel via a 1 ml syringe for tumor development. The treatments were started when the mean tumor size reaches approximately 200 (150-250) mm^3 at 9 days after inoculation.

[2] = tested on: hedgehog signaling pathway; assay: Gli luciferase reporter assay in Gli Reporter-NIH3T3 cells stimulated with mShh; assay type: cell-based; settings: mShh 1 μg/ml, 27 hours, read-out: IC50 for inhibition of the hedgehog signaling pathway
Method: In vitro test: Experimental method to measure the inhibition of jervine on the hedgehog signaling pathway
Hedgehog signaling pathway Gli Reporter-NIH3T3 cells were cultured in DMEM medium with 10% Calf serum, 1% Penn-strep, 500 μg/ml of Geneticin.
To perform the Gli luciferase reporter assay, Gli Reporter-NIH3T3 cells were seeded at 25,000 cells per well into white clear-bottom 96-well microplate in 100 μl of growth medium. Cells were incubated at 37° C. and 5% CO2 for overnight. Next day remove the medium from wells and add 45 μl of diluted inhibitor in assay medium (Opti-MEM Reduced Serum Medium+0.5% calf serum+1% non-essential amino acids+1 mM Na-pyruvate+10 mM HEPES+1% Pen/Strep) per well. Incubate cells at 37° C. in a CO2 incubator for 2 hours. Then add 5 μl of diluted mShh in assay medium to wells (final [mShh]=1 μg/ml). Add […] of assay medium to cell-free control wells. Cells were treated for 27 hours. […] Luminescence was measured using a luminometer(BioTek Synergy™ 2 microplate reader) 2.3 Data Analysis
Reporter assays in triplicate were performed at each concentration. The luminescence intensity data were analyzed using the computer software, Graphpad Prism. In the absence of the compound, the luminescence intensity (Lt) in each data set was defined as 100%. In the absence of cells, the luminescence intensity (Lb) in each data set was defined as 0%. […]

A431 xenograft = assay: A431 basal cell carcinoma xenograft tumor model, inoculated subcutaneously; assay type: in vivo, BALB/c nude mice
Method: (§1) NCI-H2122 cells were cultured in RMPI1640 medium, A431 tumor cells were cultured in DMEM medium, all the medium were supplemented with 10% heat inactivated fetal bovine serum, all cells used EDTA containing trypsin, passaged twice a week, incubated at 37° C. in an atmosphere of 5% CO2 in air and cultured.
(§2) 110 BALB/c nude mice, female, 6-8 weeks old, 18-22 g in body weight, were purchased from Shanghai Laboratory Animal Center (SLAC, Shanghai, China). The mice were kept in individually ventilated cage (NC) systems at constant temperature and humidity, with 20.5-24.5° C. for temperature, 40-75% for humidity. With 4 animals in each cage, the size ogf the cage is 325 mm×210 mm×180 mm. The bedding material is corn cob, which is changed twice per week. Animals had free access to irradiation sterilized dry granule food and water during the entire study period. The food and water were changed twice per week. The identification labels for each cage contain the following information: number of animals, sex, strain, and date received treatment, study number, group number, and the starting date of the treatment. Animals were marked by ear coding. The experiments started one week after receiving the animals.
(§3) Each mouse were inoculated subcutaneously at the right flank region with NCI-H2122 tumor cells (5×10^7/ml), NCI-H1703 tumor cells (1×10^8/ml) and A431 tumor cells (5×10^7/ml), respectively in a mixture of phosphate-buffered saline and matrigel for tumor development via a 1 ml syringe. The treatments were started when the mean tumor size reached about 200 (150-250) mm^3.
(§4) After tumor volume reached 3000 mm^3 or average tumor volume reached 2000 mm^3, before experimental animals emaciated or coma, anesthesia and euthanasia will be performed. During the experiment, if the weight loss of experimental animal reaches 20%, administration will be discontinued and experimental animals will be observed until the weight returned to 10% range before restart of the administration. In this experiment, when the mean tumor volume reached 2000 mm^3 or at the end of 59 days after the administration, experimental animals will be anesthesiaed to collect tumor mass which will be weighed and photographed.
(§5) 8.1 Tumor size was measured twice weekly in two dimensions using a caliper, and the volume was expressed in mm^3 using the formula: V=0.5 a×b^2 where a and b are the long and short diameters of the tumor, respectively.
(§6) 8.2 T/C, percent value, T and C were the mean volume of the treated and control groups, respectively, on a given day.
(§7) A one-way analysis of variance was performed followed by multiple comparison procedures. All data was analyzed using SPSS 18.0.*p <0.05 or **P<0.01 are generally considered statistically significant when compared with vehicle group.

[3] = tested on: A431 basal cell carcinoma xenograft; assay: as above; assay type: in vivo, BALB/c nude mice; settings: 40-80 mg/kg p.o. QD × 21 days
Method: as §1, §2, §3, §4, §5, §6, §7

[4] = Maximum tolerated dose of jervine on BALB/c nude mice; assay type: in vivo; settings: 14 days
Method: Result indicates the maximum tolerated dose of jervine is higher than 80 mg/kg for BALB/c mice.
Study the maximum tolerated dose of jervine on BALB/c nude mice 9 BALB/c nude mice were divided equally into 3 groups. The mice were orally dosed at 50 mg/kg, 80 mg/kg and 150 mg/kg by groups. […] It was initialy determinded that the maximum tolerated dose is higher than 80 mg/kg for BALB/c nude mice.

[5] = Pharmacokinetic study of jervine in mice; assay type: in vivo; settings: CD-1 mice
Method: Orally dosed: A total of 3 male experimental CD-1 mice, approximately 8 weeks of age at receipt was administered jervine via oral gavage at 10 mg/kg. Blood samples (300 μL) were collected via cardiac puncture predose and at 2 minute, 5 minute, 15 minute, 0.5 hour, 1 hour, 2 hour, 4 hour, 8 hour, 24 hours postdose. Plasma was made form the blood samples in order to measure the concentration of jervine.

[6] = tested on: NCI-H2122 lung cancer xenograft; assay type: in vivo, BALB/c nude mice
Method: as §1, §2
Each mouse were inoculated subcutaneously at the right flank region with NCI-H2122 tumor cells (5×10^7/ml), NCI-H1703 tumor cells (1×10^8/ml) and A431 tumor cells (5×10^7/ml), respectively in a mixture of phosphate-buffered saline and matrigel for tumor development via a 1 ml syringe. The treatments were started when the mean tumor size reached about 200 (150-250) mm^3. […]
8.1 Tumor size was measured twice weekly in two dimensions using a caliper, and the volume was expressed in mm^3 using the formula: V=0.5 a×b^2 where a and b are the long and short diameters of the tumor, respectively. […]
as §7

[7] = male, mouse, PO 10 mg/Kg, plasma

CC1=C2C(=O)[C@H]3[C@@H](CC=C4C[C@@H](O)CC[C@@]43C)[C@@H]2CC[C@]12O[C@@H]1C[C@H](C)CN[C@H]1[C@H]2C [jervine, Jervine]
T/C value (tumor volume) ([1]; 20 mg/kg iv QD × 21 days): 25.8%
T/C value (tumor volume) ([1]; 40 mg/kg iv QD × 21 days): 59.1%
T/C value (tumor volume) ([1]; 80 mg/kg iv QD × 21 days): 54.2%
IC50 [2]: 50 nM
T/C value (tumor volume) (A431 xenograft; 40 mg/kg p.o. QD for 21 days): 0.52
T/C value (tumor volume) (A431 xenograft; 60 mg/kg p.o. QD for 21 days): 0.80
T/C value (tumor volume) (A431 xenograft; 80 mg/kg p.o. QD for 21 days): 0.82
side effects / weight loss of the mice [3]: no obvious side effects; also recorded: no significant of weight lose
animal deaths ([4]; 50 mg/kg oral): no animal dead
weight loss ([4]; 80 mg/kg oral gavage): no significant weight loss
animal deaths ([4]; 80 mg/kg oral): no animal die; also recorded: no animal dead
animal deaths ([4]; 150 mg/kg oral, 3 mice per group): Two
MTD ([4]; mouse, in vivo, oral, BALB/c nude mice): > 80 mg/kg
F (bioavailability) ([5]; PO 10 mg/Kg, 10 mg/kg): 41.2%
bioavailability ([5]; male, CD-1, mouse, plasma, po, 10 mg/kg, read-out: F (bioavailability)): 41%
AUC(0-inf) [5, 7]: 2260 ng·h/mL
AUC(0-t) [5, 7]: 1790 ng·h/mL
Cmax [5, 7]: 368 ng/mL
half-life ([5]; male, mouse, PO 10 mg/Kg, plasma, read-out: T½ (converted)): 708 min
T/C value (tumor volume) ([6]; 40 mg/kg p.o. QD for 21 days): 0.79
T/C value (tumor volume) ([6]; 60 mg/kg p.o. QD for 21 days): 0.701
T/C value (tumor volume) ([6]; 80 mg/kg p.o. QD for 21 days): 0.594
